# Source: US9175011B2, “Morpholino substituted urea or carbamate derivatives as MTOR inhibitors” (CELLZOME LIMITED, priority 2011, dated 2015)
# pIC50: −log10 of the molar value.
# How the values were obtained:
# [1] = biological target: T1, mTOR (Homo sapiens, UniProt P42345); experiment: mTOR kinobeads assay (Jurkat cell lysate, dot blot detection); type: binding; conditions: read-out: Inhibition values (IC50) mTor
# T1 construct: Jurkat cells were homogenized in a Potter S homogenizer in lysis buffer; endogenous in cells; host or cells: Jurkat, clone E6-1 (ATCC TIB-152) lysate
# Method in brief: (§1)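 Competition binding: compounds in 1:3 dilution series were incubated with Jurkat cell lysate (5 mg/ml total protein) and kinobeads (phenylthiazole plus phenylmorpholin-chromen ligand beads) for three hours in a cold room. Bead-bound kinase was eluted, quantified by antibody dot blot with infrared detection; IC50 from dose-response curves.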
# [2] = biological target: T2, PI3K alpha (PI3Kα) (Homo sapiens, UniProt P42336); experiment: kinobeads assay, PI3K alpha; type: binding; conditions: Jurkat cell lysate, read-out: Inhibition values (IC50) PI3Ka
# T2 construct: Jurkat cells were homogenized in a Potter S homogenizer in lysis buffer; endogenous in cells; host or cells: Jurkat, clone E6-1 (ATCC TIB-152) lysate
# T2 sequence (P42336 whole entry): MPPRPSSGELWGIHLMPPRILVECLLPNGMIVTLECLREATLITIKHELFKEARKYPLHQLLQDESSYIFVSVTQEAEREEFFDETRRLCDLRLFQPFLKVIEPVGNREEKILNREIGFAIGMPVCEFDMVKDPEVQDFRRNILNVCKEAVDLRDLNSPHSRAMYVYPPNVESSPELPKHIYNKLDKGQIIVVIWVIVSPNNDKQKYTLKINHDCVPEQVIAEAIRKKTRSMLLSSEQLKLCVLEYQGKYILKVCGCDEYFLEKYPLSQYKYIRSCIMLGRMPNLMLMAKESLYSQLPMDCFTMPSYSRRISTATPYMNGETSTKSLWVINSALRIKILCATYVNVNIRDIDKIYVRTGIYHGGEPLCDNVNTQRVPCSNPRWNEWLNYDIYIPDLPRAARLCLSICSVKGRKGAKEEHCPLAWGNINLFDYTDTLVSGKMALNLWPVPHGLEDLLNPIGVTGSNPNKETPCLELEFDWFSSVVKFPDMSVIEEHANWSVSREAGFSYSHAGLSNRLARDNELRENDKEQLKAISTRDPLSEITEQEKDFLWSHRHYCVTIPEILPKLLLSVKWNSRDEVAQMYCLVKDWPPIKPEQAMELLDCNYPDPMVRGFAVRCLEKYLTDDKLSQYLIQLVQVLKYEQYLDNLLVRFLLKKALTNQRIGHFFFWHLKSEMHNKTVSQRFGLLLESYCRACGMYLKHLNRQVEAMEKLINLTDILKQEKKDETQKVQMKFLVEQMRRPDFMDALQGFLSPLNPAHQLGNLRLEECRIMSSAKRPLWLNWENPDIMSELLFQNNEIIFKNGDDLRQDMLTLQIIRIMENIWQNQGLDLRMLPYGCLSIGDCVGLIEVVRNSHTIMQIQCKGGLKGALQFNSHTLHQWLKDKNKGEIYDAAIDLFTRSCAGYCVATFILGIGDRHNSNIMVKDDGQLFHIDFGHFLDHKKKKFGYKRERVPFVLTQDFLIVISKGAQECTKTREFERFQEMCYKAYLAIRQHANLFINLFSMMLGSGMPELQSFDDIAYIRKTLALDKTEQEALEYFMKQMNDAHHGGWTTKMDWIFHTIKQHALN
# T2 sequence (P27986 whole entry partner): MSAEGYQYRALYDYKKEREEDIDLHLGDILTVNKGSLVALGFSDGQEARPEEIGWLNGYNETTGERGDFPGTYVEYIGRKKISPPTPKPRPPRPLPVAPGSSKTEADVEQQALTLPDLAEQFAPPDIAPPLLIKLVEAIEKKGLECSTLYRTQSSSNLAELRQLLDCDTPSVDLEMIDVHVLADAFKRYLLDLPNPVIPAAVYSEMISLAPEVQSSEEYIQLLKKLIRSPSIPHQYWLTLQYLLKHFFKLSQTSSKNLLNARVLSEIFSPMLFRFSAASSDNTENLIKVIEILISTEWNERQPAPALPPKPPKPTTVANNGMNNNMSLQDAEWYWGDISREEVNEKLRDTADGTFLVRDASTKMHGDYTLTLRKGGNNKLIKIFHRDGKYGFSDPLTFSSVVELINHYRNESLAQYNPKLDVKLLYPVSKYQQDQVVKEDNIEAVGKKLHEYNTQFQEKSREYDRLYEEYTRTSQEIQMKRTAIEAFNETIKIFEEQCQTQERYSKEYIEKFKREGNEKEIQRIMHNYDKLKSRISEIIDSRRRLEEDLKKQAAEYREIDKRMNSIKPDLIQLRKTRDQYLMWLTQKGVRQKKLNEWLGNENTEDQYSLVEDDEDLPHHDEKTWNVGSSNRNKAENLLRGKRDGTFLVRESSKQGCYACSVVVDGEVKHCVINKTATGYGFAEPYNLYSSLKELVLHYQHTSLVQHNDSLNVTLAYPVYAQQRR
# Method in brief: as §1
# [3] = biological target: T3, PI3K beta (PI3Kb) (Homo sapiens, UniProt P42338); experiment: kinobeads assay, PI3K beta; type: binding; conditions: Jurkat cell lysate, read-out: Inhibition values (IC50) PI3Kb
# T3 construct: Jurkat cells were homogenized in a Potter S homogenizer in lysis buffer; endogenous in cells; host or cells: Jurkat, clone E6-1 (ATCC TIB-152) lysate
# T3 sequence (P42338 whole entry): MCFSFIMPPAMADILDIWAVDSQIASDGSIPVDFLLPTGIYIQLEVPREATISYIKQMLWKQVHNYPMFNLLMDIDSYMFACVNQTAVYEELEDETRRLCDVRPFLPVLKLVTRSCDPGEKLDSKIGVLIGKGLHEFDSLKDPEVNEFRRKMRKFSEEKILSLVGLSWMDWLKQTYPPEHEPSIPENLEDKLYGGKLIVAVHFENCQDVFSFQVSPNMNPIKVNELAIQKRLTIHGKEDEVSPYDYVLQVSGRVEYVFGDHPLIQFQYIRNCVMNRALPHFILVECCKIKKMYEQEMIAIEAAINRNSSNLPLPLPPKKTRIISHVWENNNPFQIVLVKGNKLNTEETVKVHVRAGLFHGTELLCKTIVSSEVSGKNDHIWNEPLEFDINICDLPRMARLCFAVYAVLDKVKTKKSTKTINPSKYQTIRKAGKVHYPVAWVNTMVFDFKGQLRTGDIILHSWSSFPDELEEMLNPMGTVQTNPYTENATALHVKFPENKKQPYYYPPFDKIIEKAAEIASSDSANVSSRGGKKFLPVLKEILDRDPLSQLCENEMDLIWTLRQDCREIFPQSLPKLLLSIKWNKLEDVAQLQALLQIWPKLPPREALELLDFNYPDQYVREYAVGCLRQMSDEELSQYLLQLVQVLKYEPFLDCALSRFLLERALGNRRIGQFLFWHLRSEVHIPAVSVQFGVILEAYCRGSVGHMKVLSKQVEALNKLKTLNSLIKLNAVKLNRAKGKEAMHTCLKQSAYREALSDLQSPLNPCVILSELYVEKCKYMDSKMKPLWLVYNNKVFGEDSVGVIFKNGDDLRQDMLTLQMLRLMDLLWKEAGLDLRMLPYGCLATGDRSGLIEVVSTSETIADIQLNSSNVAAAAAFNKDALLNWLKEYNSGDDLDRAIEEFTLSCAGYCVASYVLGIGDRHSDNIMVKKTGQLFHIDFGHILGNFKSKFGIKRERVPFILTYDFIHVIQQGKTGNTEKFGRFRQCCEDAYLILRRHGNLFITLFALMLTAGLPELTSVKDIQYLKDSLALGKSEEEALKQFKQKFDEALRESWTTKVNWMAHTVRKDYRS
# T3 sequence (P27986 whole entry partner): as the sequence (P27986 whole entry partner) above
# Method in brief: as §1
# [4] = biological target: T4, PI3K gamma (PI3Kg) (Homo sapiens, UniProt P48736); experiment: kinobeads assay, PI3K gamma; type: binding; conditions: Jurkat cell lysate, read-out: Inhibition values (IC50) PI3Kg
# T4 construct: Jurkat cells were homogenized in a Potter S homogenizer in lysis buffer; endogenous in cells; host or cells: Jurkat, clone E6-1 (ATCC TIB-152) lysate
# T4 sequence (P48736 whole entry): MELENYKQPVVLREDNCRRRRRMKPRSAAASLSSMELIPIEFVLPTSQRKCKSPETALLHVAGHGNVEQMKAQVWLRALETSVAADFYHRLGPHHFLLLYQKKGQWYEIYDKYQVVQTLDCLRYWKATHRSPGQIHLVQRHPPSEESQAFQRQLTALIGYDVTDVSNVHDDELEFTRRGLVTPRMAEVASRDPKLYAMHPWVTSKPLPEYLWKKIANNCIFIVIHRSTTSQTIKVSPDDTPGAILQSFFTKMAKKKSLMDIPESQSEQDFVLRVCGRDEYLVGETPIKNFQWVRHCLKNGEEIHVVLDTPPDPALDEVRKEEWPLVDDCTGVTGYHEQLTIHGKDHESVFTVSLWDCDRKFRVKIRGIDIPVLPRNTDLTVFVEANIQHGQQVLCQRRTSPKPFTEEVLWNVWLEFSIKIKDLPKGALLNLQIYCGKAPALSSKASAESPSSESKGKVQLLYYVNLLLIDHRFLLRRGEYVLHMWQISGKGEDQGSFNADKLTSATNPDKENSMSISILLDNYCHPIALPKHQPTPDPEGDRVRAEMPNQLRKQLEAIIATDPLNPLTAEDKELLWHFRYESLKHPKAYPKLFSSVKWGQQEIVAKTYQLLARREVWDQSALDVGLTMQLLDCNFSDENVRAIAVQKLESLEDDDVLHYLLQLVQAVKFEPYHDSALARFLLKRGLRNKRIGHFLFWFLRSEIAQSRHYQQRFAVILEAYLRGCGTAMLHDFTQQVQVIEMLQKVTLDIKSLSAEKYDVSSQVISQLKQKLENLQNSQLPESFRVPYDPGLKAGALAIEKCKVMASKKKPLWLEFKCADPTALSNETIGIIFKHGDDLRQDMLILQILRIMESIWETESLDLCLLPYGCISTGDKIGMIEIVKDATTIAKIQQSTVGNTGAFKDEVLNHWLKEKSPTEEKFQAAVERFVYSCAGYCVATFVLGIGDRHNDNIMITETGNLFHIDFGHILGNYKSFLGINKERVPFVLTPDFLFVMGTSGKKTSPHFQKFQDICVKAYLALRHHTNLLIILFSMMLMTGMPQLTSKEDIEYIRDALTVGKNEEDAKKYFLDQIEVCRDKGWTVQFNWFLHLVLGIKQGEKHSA
# Method in brief: as §1
# [5] = biological target: T5, PI3K delta (PI3Kd) (Homo sapiens, UniProt O00329); experiment: kinobeads assay, PI3K delta; type: binding; conditions: Jurkat cell lysate, read-out: Inhibition values (IC50) PI3Kd
# T5 construct: Jurkat cells were homogenized in a Potter S homogenizer in lysis buffer; endogenous in cells; host or cells: Jurkat, clone E6-1 (ATCC TIB-152) lysate
# T5 sequence (O00329 whole entry): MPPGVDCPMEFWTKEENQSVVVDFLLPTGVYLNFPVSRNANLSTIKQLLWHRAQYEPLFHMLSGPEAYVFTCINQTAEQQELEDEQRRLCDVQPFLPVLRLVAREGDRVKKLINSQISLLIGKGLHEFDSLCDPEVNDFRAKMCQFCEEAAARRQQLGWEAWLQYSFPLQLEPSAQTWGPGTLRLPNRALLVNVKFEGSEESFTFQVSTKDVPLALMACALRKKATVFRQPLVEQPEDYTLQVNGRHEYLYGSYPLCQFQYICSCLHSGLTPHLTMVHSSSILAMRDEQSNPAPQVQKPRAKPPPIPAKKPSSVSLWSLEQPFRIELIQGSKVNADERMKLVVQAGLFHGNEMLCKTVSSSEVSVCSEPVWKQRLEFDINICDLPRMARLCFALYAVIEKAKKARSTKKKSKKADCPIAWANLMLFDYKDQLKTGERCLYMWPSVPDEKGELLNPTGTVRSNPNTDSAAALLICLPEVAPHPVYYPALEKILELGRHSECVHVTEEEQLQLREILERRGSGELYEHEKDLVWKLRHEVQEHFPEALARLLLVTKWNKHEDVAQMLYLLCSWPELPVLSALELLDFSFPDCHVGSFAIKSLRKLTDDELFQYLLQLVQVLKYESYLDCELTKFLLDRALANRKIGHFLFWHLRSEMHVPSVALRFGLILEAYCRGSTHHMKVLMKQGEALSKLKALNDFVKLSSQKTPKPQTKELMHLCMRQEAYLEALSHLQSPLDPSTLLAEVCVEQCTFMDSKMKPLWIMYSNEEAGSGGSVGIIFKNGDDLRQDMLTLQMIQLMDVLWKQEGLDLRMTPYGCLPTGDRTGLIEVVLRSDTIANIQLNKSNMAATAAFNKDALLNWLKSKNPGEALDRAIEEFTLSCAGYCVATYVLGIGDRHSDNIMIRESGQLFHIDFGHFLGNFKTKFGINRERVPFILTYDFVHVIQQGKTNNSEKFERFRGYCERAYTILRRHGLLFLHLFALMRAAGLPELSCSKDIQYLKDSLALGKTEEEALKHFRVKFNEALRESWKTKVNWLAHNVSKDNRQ
# T5 sequence (P27986 whole entry partner): as the sequence (P27986 whole entry partner) above
# Method in brief: as §1
# [6] = biological target: T6, DNA-dependent protein kinase (DNA-PK) (Homo sapiens, UniProt P78527); experiment: kinobeads assay, DNA-PK; type: binding; conditions: Jurkat cell lysate, read-out: Inhibition values (IC50) DNA-PK
# T6 construct: Jurkat cells were homogenized in a Potter S homogenizer in lysis buffer; endogenous in cells; host or cells: Jurkat, clone E6-1 (ATCC TIB-152) lysate
# Method in brief: as §1
# [7] = tested on: S6RP serine-240/244 phosphorylation; experiment: In vitro phospho-S6 cellular assay (HEK293T/17); type: cell-based; conditions: Homo sapiens; HEK293T/17 cells, 2 hours, pS6RP Ser240/244; read-out: Inhibition values (IC50) pS6
# Method in brief: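 HEK293T/17 cells in DMEM with 2% FCS were exposed to 8 compound concentrations (0.1% DMSO) for 2 h at 37 °C, then lysed. pS6RP Ser240/244 or pAkt Ser473 in the lysates was quantified by MSD sandwich electrochemiluminescence. IC50 was obtained by sigmoidal variable-slope nonlinear regression.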
# [8] = tested on: Akt serine-473 phosphorylation; experiment: In vitro phospho-Akt cellular assay (HEK293T/17); type: cell-based; conditions: Homo sapiens; HEK293T/17 cells, 2 hours, pAkt Ser 473; read-out: Inhibition values (IC50) pAkt
# From the text: Activation of mTOR signaling results in phosphorylation of several downstream targets. In cells, mTOR exists in two different protein complexes. The mTOR Complex-1 (mTORC1) phosphorylates and activates S6 Kinase 1 (S6K1) and S6 Kinase 2 (S6K2) (also known as p70S6K) which then phosphorylate S6 Ribosomal Protein (S6RP) (also known as RPS6)3. S6RP is phosphorylated on serine 235, senile 236, serine 240 and serine 244 by both pS6K1 and pS6K2. The mTOR Complex-2 (mTORC2) phosphorylates AKT on serine 473 which activates the AKT signaling pathway.
# The assay measures a test compound's inhibition of S6RP serine-240/244 phosphorylation and inhibition of Akt serine-473 phosphorylation in human embryonic kidney derived HEK293T/17 cells (ATCC CRL-11268).
# The HEK293T/17 cell line is maintained in DMEM media (Invitrogen catalogue number 41965-039) supplemented with 10% FCS at 37° C. in a 5% CO2 humidified incubator. Cells are seeded in 96-well plates at 40,000 cells/well (pS6RP S240/244 assay) or 80,000 cells/well (pAkt 5473 assay) in 90 μl growth media (DMEM, 2% FCS). Plates are incubated for 1 hour in a humidified incubator to allow the cells to adhere. Cells are treated with 8 concentrations of test compounds or DMSO alone for controls (final DMSO concentration 0.1%) and incubated at 37° C. for 2 hours. Then 20 μl of 5× concentrated lysis buffer (750 mM NaCl, 100 mM Tris pH7.4, 5 mM ADTA, 5 mM EGTA, 5% Triton X-100) is added, plates are sealed and incubated for 15 minutes at 4° C. with gentle shaking After cell lysis, 25 μl cell lysate is transferred to a MesoScale plate coated with an antibody to pS6RP Ser240/244 (MesoScale Discovery K150DGD-3) or an antibody to pAkt Ser 473 (MesoScale Discovery K151DGD-3). Plates have been blocked before by incubation with 150 μl MesoScale Discovery Blocking Solution-A for 1 hour at room temperature followed by washing with 150 μl 1×Tris wash buffer per well. After the transfer of the cell lysate to the MSD plate, the pS6RP (or pAkt) protein is captured on the coated antibody by incubation at room temperature for 1 hour with gentle shaking. After the capture step the plate is washed three times with 150 μl of 1× Tris wash buffer per well. Then 25 μl detection antibody conjugated with a Sulfo-Tag is added and incubated for 1 hour at room temperature with gentle shaking. Subsequently the antibody solution is removed and the plate is washed 3 times with 150 μl 1×Tris wash buffer per well and 150 μl Read buffer is added. The plates are analysed on a MSD 2400 Plate Reader (MesoScale Discovery). Data analysis is performed using nonlinear regression for a sigmoidal dose-response with a variable slope.
SMILES,pIC50 [1],pIC50 [2],pIC50 [3],pIC50 [4],pIC50 [5],pIC50 [6],pIC50 [7],pIC50 [8]
"C[C@H]1COCCN1c1nc(-c2ccc(NC(=O)NCCO)cc2)nc(-c2ccccc2S(C)(=O)=O)n1 [Example 4, (S)-1-(2-hydroxyethyl)-3-(4-(4-(3-methylmorpholino)-6-(2-(methylsulfonyl)phenyl)-1,3,5-triazin-2-yl)phenyl)urea]",> 7.00,< 5.00,< 5.00,< 5.00,< 5.00,< 5.00,> 7.00,> 7.00
"C[C@H]1COCCN1c1nc(-c2ccc(NC(=O)NCCO)cc2)nc(-c2cc(F)ccc2S(C)(=O)=O)n1 [Example 6, (S)-1-(4-(4-(5-fluoro-2-(methylsulfonyl)phenyl)-6-(3-methylmorpholino)-1,3,5-triazin-2-yl)phenyl)-3-(2-hydroxyethyl)urea]",> 7.00,< 5.00,< 5.00,< 5.00,< 5.00,< 5.00,6.00 to 7.00,> 7.00
"C[C@H]1COCCN1c1nc(-c2ccc(NC(=O)NCC(F)F)cc2)nc(-c2ccccc2S(C)(=O)=O)n1 [Example 8, (S)-1-(2,2-difluoroethyl)-3-(4-(4-(3-methylmorpholin)-6-(2-(methylsulfonyl)phenyl)-1,3,5-triazin-2-yl)phenyl)urea]",> 7.00,< 5.00,< 5.00,< 5.00,< 5.00,< 5.00,> 7.00,> 7.00
"C[C@H]1COCCN1c1nc(-c2ccc(NC(=O)NCC(F)(F)F)cc2)nc(-c2ccccc2S(C)(=O)=O)n1 [Example 32, (S)-1-(4-(4-(3-methylmorpholino)-6-(2-(methylsulfonyl)phenyl)-1,3,5-triazin-2-yl)phenyl)-3-(2,2,2-trifluoroethyl)urea]",6.00 to 7.00,< 5.00,< 5.00,< 5.00,< 5.00,< 5.00,> 7.00,
"C[C@H]1COCCN1c1nc(-c2ccc(NC(=O)NCC(O)C(F)(F)F)cc2)nc(-c2ccccc2S(C)(=O)=O)n1 (stereo partly drawn) [Example 33, 1-(4-(4-((S)-3-methylmorpholino)-6-(2-(methylsulfonyl)phenyl)-1,3,5-triazin-2-yl)phenyl)-3-(3,3,3-trifluoro-2-hydroxypropyl)urea]",6.00 to 7.00,< 5.00,< 5.00,< 5.00,< 5.00,< 5.00,6.00 to 7.00,
"C[C@H]1COCCN1c1nc(-c2ccc(NC(=O)Nc3ccncc3)cc2)nc(-c2ccccc2S(C)(=O)=O)n1 [Example 35, (S)-1-(4-(4-(3-methylmorpholino)-6-(2-(methylsulfonyl)phenyl)-1,3,5-triazin-2-yl)phenyl)-3-(pyridin-4-yl)urea]",6.00 to 7.00,< 5.00,< 5.00,< 5.00,< 5.00,< 5.00,> 7.00,

# Other lines, results leading:
pIC50 [1],pIC50 [2],pIC50 [3],pIC50 [4],pIC50 [5],pIC50 [6],pIC50 [7],pIC50 [8],SMILES
> 7.00,< 5.00,< 5.00,< 5.00,< 5.00,< 5.00,> 7.00,> 7.00,"C[C@H]1COCCN1c1nc(-c2ccc(NC(=O)NC3CC3)cc2)nc(-c2ccccc2S(C)(=O)=O)n1 [Example 1, (S)-1-cyclopropyl-3-(4-(4-(3-methylmorpholino)-6-(2-(methylsulfonyl)phenyl)-1,3,5-triazin-2-yl)phenyl)urea]"
6.00 to 7.00,< 5.00,< 5.00,< 5.00,< 5.00,< 5.00,> 7.00,> 7.00,"C[C@H]1COCCN1c1nc(-c2ccc(NC(=O)NC3CC3)cc2)nc(-c2cc(F)ccc2S(C)(=O)=O)n1 [Example 5, (S)-1-cyclopropyl-3-(4-(4-(5-fluoro-2-(methylsulfonyl)phenyl)-6-(3-methylmorpholino)-1,3,5-triazin-2-yl)phenyl)urea]"
> 7.00,< 5.00,< 5.00,< 5.00,< 5.00,< 5.00,> 7.00,> 7.00,"C[C@H]1COCCN1c1nc(-c2ccc(NC(=O)NCCF)cc2)nc(-c2ccccc2S(C)(=O)=O)n1 [Example 7, (S)-1-(2-fluoroethyl)-3-(4-(4-(3-methylmorpholino)-6-(2-(methylsulfonyl)phenyl)-1,3,5-triazin-2-yl)phenyl)urea]"
> 7.00,< 5.00,< 5.00,< 5.00,< 5.00,< 5.00,> 7.00,> 7.00,"CCNC(=O)Nc1ccc(-c2nc(-c3ccccc3S(C)(=O)=O)nc(N3CCOC[C@@H]3C)n2)cc1 [Example 10, (S)-1-ethyl-3-(4-(4-(3-methylmorpholino)-6-(2-(methylsulfonyl)phenyl)-1,3,5-triazin-2-yl)phenyl)urea]"
6.00 to 7.00,< 5.00,< 5.00,< 5.00,< 5.00,< 5.00,> 7.00,> 7.00,"CNC(=O)Nc1ccc(-c2nc(-c3ccccc3S(C)(=O)=O)nc(N3CCOC[C@@H]3C)n2)cc1 [Example 14, (S)-1-methyl-3-(4-(4-(3-methylmorpholino)-6-(2-(methylsulfonyl)phenyl)-1,3,5-triazin-2-yl)phenyl)urea]"
> 7.00,< 5.00,5.00 to 6.00,< 5.00,5.00 to 6.00,< 5.00,> 7.00,> 7.00,"C[C@H]1COCCN1c1nc(-c2ccc(NC(=O)NC3CC3)cc2)nc(-c2cccnc2S(C)(=O)=O)n1 [Example 24, (S)-1-cyclopropyl-3-(4-(4-(3-methylmorpholino)-6-(2-(methylsulfonyl)pyridin-3-yl)-1,3,5-triazin-2-yl)phenyl)urea]"
6.00 to 7.00,< 5.00,< 5.00,< 5.00,< 5.00,< 5.00,6.00 to 7.00,,"C[C@H]1COCCN1c1nc(-c2ccc(NC(=O)NC3CCOC3)cc2)nc(-c2ccccc2S(C)(=O)=O)n1 (stereo partly drawn) [Example 34, 1-(4-(4-((S)-3-methylmorpholino)-6-(2-(methylsulfonyl)phenyl)-1,3,5-triazin-2-yl)phenyl)-3-(tetrahydrofuran-3-yl)urea]"
6.00 to 7.00,< 5.00,< 5.00,< 5.00,< 5.00,< 5.00,> 7.00,,"CCC1COCCN1c1nc(-c2ccc(NC(=O)NC3CC3)cc2)nc(-c2ccccc2S(C)(=O)=O)n1 (centres unmarked) [Example 36, 1-cyclopropyl-3-(4-(4-(3-ethylmorpholino)-6-(2-(methylsulfonyl)phenyl)-1,3,5-triazin-2-yl)phenyl)urea]"
